Source: ChEMBL document CHEMBL1132009, “Inhibition of MMP-1 and MMP-13 with phosphinic acids that exploit binding in the S2 pocket” (Bioorg Med Chem Lett, 1999)

How the values were obtained:
Interstitial collagenase = target: T1, Interstitial collagenase (Homo sapiens, UniProt P03956); experiment: Inhibitory activity against recombinant matrix metalloprotease-1 (MMP-1).
T1 sequence (P03956 whole entry): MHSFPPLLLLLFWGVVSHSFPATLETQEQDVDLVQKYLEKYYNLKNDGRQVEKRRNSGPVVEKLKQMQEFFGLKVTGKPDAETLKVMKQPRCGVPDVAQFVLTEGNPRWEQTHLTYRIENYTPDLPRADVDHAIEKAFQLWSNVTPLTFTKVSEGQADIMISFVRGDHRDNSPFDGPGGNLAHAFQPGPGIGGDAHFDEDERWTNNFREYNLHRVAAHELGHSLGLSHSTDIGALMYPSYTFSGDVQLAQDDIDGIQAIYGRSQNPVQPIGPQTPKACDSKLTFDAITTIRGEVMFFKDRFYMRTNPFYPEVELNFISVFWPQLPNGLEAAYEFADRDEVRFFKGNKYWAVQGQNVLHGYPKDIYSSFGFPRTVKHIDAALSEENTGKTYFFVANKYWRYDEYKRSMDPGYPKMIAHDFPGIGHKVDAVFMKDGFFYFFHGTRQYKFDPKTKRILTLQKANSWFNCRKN

[1] = Clearance after iv administration to rats; format: ADME, organism-based; settings: rat, in vivo
Collagenase 3 = Collagenase 3 (Homo sapiens, UniProt P45452); experiment: Inhibition of recombinant Matrix metalloprotease-13 (MMP-13)
[2] = Steady state volume of distribution after iv administration to rats; format: ADME, organism-based; settings: rat, in vivo
[3] = Terminal half-life after iv administration to rats; format: ADME, organism-based; settings: rat, in vivo
Stromelysin-1 = Stromelysin-1 (Homo sapiens, UniProt P08254); experiment: Inhibition of recombinant matrix metalloprotease-3 (MMP-3)
Sequence of Stromelysin-1 (P08254 whole entry): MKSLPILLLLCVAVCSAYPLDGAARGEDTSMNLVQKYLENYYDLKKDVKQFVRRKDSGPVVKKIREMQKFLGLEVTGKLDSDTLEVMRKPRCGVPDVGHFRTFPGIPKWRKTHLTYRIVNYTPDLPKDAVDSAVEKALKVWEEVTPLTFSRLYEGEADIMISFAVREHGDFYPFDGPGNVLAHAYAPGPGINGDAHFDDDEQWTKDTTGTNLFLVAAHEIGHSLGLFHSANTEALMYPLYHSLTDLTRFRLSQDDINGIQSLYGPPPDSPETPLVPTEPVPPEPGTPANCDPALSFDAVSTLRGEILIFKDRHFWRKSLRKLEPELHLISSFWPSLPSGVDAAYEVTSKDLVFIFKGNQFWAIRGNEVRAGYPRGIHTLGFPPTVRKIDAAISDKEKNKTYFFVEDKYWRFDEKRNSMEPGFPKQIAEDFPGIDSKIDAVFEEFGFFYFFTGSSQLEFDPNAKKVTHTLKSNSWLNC

[4] = target: 72 kDa type IV collagenase (Homo sapiens, UniProt P08253); experiment: Inhibition of recombinant matrix metalloprotease-2 (MMP-2)
Sequence of 72 kDa type IV collagenase (P08253 whole entry): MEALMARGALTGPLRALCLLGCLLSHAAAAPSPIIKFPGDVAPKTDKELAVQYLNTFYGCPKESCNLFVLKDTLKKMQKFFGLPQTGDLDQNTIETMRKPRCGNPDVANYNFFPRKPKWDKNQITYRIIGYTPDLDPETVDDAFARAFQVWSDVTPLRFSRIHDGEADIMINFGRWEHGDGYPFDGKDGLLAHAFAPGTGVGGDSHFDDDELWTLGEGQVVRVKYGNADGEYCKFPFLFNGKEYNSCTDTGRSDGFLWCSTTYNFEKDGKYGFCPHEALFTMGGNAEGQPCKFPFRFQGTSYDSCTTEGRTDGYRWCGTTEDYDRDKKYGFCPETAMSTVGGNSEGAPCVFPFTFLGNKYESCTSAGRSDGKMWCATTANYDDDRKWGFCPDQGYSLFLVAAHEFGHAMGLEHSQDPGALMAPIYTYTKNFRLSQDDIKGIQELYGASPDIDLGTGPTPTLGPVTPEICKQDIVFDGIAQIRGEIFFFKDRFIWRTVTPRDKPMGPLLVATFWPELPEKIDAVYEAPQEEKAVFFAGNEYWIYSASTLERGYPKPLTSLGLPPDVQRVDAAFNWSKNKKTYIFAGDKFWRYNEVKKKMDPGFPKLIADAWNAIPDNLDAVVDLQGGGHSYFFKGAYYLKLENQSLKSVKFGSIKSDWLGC

[5] = Selectivity ratio for MMP-2 over MMP-3

| IC50 (Interstitial collagenase) [µM] | SMILES | IC50 (Collagenase 3) [µM] | other results |
| --- | --- | --- | --- |
| 0.69 | CNC(=O)[C@H](NC(=O)C(CCc1ccccc1)CP(=O)(O)Cc1ccc(Cc2ccccc2)cc1)C(C)(C)C (some centres undefined) | 0.014 | clearance [1]: 12 mL/min/kg; Vd [2]: 0.2 L/kg; half-life [3]: 2.3 h; IC50 (Stromelysin-1): 1.2 µM |
| 2.1 | CNC(=O)[C@@H](Cc1ccc(OC)cc1)NC(=O)C(CC(C)C)CP(=O)(O)Cc1ccc(C(=O)NCc2ccccc2)cc1 (some centres undefined) | – | – |
| 2.3 | CNC(=O)[C@@H](C)NC(=O)C(CC(C)C)CP(=O)(O)Cc1ccc(Cc2ccccc2)cc1 (some centres undefined) | – | – |
| 20 | CC(C)CC(CP(=O)(O)Cc1ccc(Cc2ccccc2)cc1)C(=O)NCC(C)(C)C (centres undefined) | – | – |
| 1.8 | CNC(=O)[C@H](NC(=O)C(CC1CCCCC1)CP(=O)(O)Cc1ccc(Cc2ccccc2)cc1)C(C)(C)C (some centres undefined) | 1.6 | – |

The remaining lines, values behind:

| SMILES | IC50 (Interstitial collagenase) [µM] | IC50 (Collagenase 3) [µM] | other results |
| --- | --- | --- | --- |
| CNC(=O)[C@H](NC(=O)C(CC(C)C)CP(=O)(O)Cc1ccc(C(=O)c2ccccc2)cc1)C(C)(C)C (some centres undefined) | 0.75 | – | – |
| CNC(=O)[C@H](NC(=O)C(CCC(C)C)CP(=O)(O)Cc1ccc(Cc2ccccc2)cc1)C(C)(C)C (some centres undefined) | 3.5 | > 3 | – |
| CNC(=O)[C@H](NC(=O)C(CCC1CCCCC1)CP(=O)(O)Cc1ccc(Cc2ccccc2)cc1)C(C)(C)C (some centres undefined) | 19 | 2 | – |
| CC(C)CC(CP(=O)(O)Cc1ccc(Cc2ccccc2)cc1)C(=O)NC(CO)C(C)(C)C (centres undefined) | 18 | – | – |
| CNC(=O)[C@H](NC(=O)C(CC1CC1)CP(=O)(O)Cc1ccc(Cc2ccccc2)cc1)C(C)(C)C (some centres undefined) | 0.2 | 1.1 | – |
| CNC(=O)[C@H](NC(=O)C(CC(C)C)CP(=O)(O)Cc1ccc(Cc2ccccc2)cc1)C(C)(C)C (some centres undefined) | 0.06 | 0.18 | – |
| CC(=O)N1CCC[C@H]1C(=O)NCCCCP(=O)(O)C[C@@H](CCc1ccccc1)C(=O)N[C@H](CC(C)C)C(=O)Nc1ccccc1 | – | – | Ki [4]: 0.0061 µM; Selectivity [5]: 10; Ki (Stromelysin-1): 0.062 µM |
| CC(C)C[C@@H](NC(=O)[C@H](CCc1ccccc1)CP(=O)(O)CCCCN1C(=O)c2ccccc2C1=O)C(=O)Nc1ccccc1 | – | – | Ki [4]: 0.02 µM |
| CNC(=O)[C@H](NC(=O)C(CC1CCC1)CP(=O)(O)Cc1ccc(Cc2ccccc2)cc1)C(C)(C)C (some centres undefined) | 0.18 | 0.11 | – |
| CNC(=O)[C@H](NC(=O)C(CCC(F)(F)F)CP(=O)(O)Cc1ccc(Cc2ccccc2)cc1)C(C)(C)C (some centres undefined) | 0.045 | 1.6 | – |
| CNC(=O)[C@H](NC(=O)C(CCc1ccccc1)CP(=O)(O)Cc1ccccc1)C(C)(C)C (some centres undefined) | 22 | 0.3 | IC50 (Stromelysin-1): 2.7 µM |
| CNC(=O)[C@H](NC(=O)C(CCCCOc1ccccc1)CP(=O)(O)Cc1ccc(Cc2ccccc2)cc1)C(C)(C)C (some centres undefined) | > 30 | 0.03 | – |
